Results published in patent US20100137305A1, “AMINOPYRIMIDINES USEFUL AS KINASE INHIBITORS” (VERTEX PHARMACEUTICALS INCORPORATED, priority 2008, published 2010).
Where two headings read alike, the source gives them in different places.

Experiments:
[1] = tested on: Colo205 cells; experiment: Analysis of Cell Proliferation, 3H thymidine incorporation; format: cell-based; conditions: Homo sapiens
Summary of the method: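 Serially diluted compound added in duplicate to Colo205 cells, 0.1% DMSO diluent control, incubated 72 or 96 hrs at 37C, 5% CO2. 0.5 μCi 3H thymidine added 3 h before end; incorporated radioactivity counted by beta-counter and dose-response curves fitted.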

[2] = target: T1, Aurora-2 (Aurora A) (Homo sapiens, UniProt O14965); experiment: Aurora-2 (Aurora A) Inhibition Assay, coupled enzyme assay; format: biochemical; conditions: 400 μM ATP, 30° C.; read-out: Aurora A kinase activity Ki
T1 sequence (O14965 1-403): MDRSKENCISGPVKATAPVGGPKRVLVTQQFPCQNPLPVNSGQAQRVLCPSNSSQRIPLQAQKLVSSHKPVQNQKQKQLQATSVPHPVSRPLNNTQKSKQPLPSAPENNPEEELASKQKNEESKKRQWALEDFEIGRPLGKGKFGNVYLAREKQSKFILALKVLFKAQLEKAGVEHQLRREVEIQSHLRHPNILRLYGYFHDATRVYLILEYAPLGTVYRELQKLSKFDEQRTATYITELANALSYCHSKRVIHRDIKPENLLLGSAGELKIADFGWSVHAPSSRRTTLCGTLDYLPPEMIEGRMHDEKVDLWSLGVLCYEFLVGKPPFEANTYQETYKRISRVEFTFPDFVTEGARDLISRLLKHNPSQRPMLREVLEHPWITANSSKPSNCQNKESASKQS
Summary of the method: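 Coupled pyruvate kinase/LDH assay (NADH read-out) with 40 nM Aurora-2, 400 μM ATP and 570 μM Kemptide in 100 mM Hepes pH 7.5, 10 mM MgCl2, at 30 °C. Compound preincubated 10 min (serial dilutions typically from 7.5 μM final); initial rates over 10 min, IC50 and Ki by non-linear regression.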

[3] = target: T2, T315I mutant of human Abl (Homo sapiens, UniProt P00519, T315I); experiment: Mutant Abl Kinase (T315I) Activity Inhibition Assay (Upstate, radiometric); format: biochemical
T2 construct: purchased Upstate Cell Signaling Solutions (Dundee, UK)

[4] = target: Aurora-1 (Aurora B) (Homo sapiens, UniProt Q96GD4); experiment: Aurora-1 (Aurora B) Inhibition Assay (radiometric); format: biochemical; conditions: 800 μM ATP; read-out: Aurora B kinase activity Ki
Chain of Aurora-1 (Aurora B) (Q96GD4 whole entry): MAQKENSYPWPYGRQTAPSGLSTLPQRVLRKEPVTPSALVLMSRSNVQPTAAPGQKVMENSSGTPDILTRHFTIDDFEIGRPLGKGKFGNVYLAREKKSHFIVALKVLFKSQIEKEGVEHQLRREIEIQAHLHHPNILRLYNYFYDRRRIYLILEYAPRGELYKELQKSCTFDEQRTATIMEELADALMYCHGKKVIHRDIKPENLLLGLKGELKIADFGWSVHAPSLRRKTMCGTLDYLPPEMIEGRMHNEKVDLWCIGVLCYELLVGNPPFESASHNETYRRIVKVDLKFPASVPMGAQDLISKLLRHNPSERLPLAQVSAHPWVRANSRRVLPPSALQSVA
Summary of the method: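 Enzyme at 22 nM in solution with 1.5 mM Kemptide (LRRASLG) in 25 mM HEPES pH 7.5, 10 mM MgCl2, 0.1% BSA, 10% glycerol, 1.7 mM DTT. Compound pre-equilibrated 10 min at 25° C, then [γ-33P]-ATP added at 800 μM final for 3 h. 33P peptide incorporation by phosphocellulose capture and scintillation counting. Ki from initial rates by non-linear regression.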

[5] = target: N-terminally truncated (Δ 27) Abl kinase (Homo sapiens, UniProt P00519); experiment: Abl Kinase Activity Inhibition Assay, coupled enzyme system; format: biochemical; conditions: 110 μM ATP, 30° C.
Protocol: Compounds were screened for their ability to inhibit N-terminally truncated (Δ 27) Abl kinase activity using a standard coupled enzyme system (Fox et al., Protein Sci., 7, pp. 2249 (1998)). Reactions were carried out in a solution containing 100 mM HEPES (pH 7.5), 10 mM MgCl2, 25 mM NaCl, 300 μM NADH, 1 mM DTT and 3% DMSO. Final substrate concentrations in the assay were 110 μM ATP (Sigma Chemicals, St Louis, Mo.) and 70 μM peptide (EAIYAAPFAKKK, American Peptide, Sunnyvale, Calif.). Reactions were carried out at 30° C. and 21 nM Abl kinase. Final concentrations of the components of the coupled enzyme system were 2.5 mM phosphoenolpyruvate, 200 μM NADH, 60 μg/ml pyruvate kinase and 20 μg/ml lactate dehydrogenase.
An assay stock buffer solution was prepared containing all of the reagents listed above with the exception of ATP and the test compound of interest. The assay stock buffer solution (60 μl) was incubated in a 96 well plate with 2 μl of the test compound of interest at final concentrations typically spanning 0.002 μM to 30 μM at 30° C. for 10 min. Typically, a 12 point titration was prepared by serial dilutions (from 1 mM compound stocks) with DMSO of the test compounds in daughter plates. The reaction was initiated by the addition of 5 μl of ATP (final concentration 110 μM). Rates of reaction were obtained using a Molecular Devices Spectramax plate reader (Sunnyvale, Calif.) over 10 min at 30° C. The Ki values were determined from the residual rate data as a function of inhibitor concentration using nonlinear regression (Prism 3.0, Graphpad Software, San Diego, Calif.).

[6] = COLO 205, 72 h, 72 hours, read-out: IC50 cell proliferation after 72 hours

Cc1cc(Nc2cc(N3CCC(N4CCCC4)CC3)nc(Sc3ccc(NC(=O)CC(F)(F)F)cc3)n2)[nH]n1 [Compound I-68]
IC50 [1, 6]: ≤ 25 nM | Ki [2]: ≤ 10 nM | Ki [3]: < 200 nM | Ki [4]: 10 to 50 nM | Ki [5]: < 25 nM

Cc1cc(Nc2cc(N3CC4CCCN(C)C4C3)nc(Sc3ccc(NC(=O)CC(F)(F)F)cc3)n2)[nH]n1 (stereo not drawn) [Compound I-69, 3,3,3-trifluoro-N-(4-(4-(3-methyl-1H-pyrazol-5-ylamino)-6-(1-methyltetrahydro-1H-pyrrolo[3,4-b]pyridin-6(2H,7H,7aH)-yl)pyrimidin-2-ylthio)phenyl)propanamide]
IC50 [1, 6]: ≤ 25 nM | Ki [2]: ≤ 10 nM | Ki [3]: < 200 nM | Ki [4]: ≤ 10 nM | Ki [5]: 25 to 100 nM

Cc1cnc(Nc2cc(N3CC[C@@H](N(C)C)C3)nc(Sc3ccc(NC(=O)C4CC4)cc3)n2)s1 [Compound I-29]
IC50 ([1]; COLO 205, 96 h, 96 hours, read-out: IC50 cell proliferation after 96 hours): 50 to 200 nM | Ki [2]: ≤ 10 nM | Ki [3]: < 200 nM | Ki [4]: 10 to 50 nM | Ki [5]: < 25 nM
